Source: paper PMC3435245, “D-Alanylation of Lipoteichoic Acids Confers Resistance to Cationic Peptides in Group B Streptococcus by Increasing the Cell Wall Density” (PLoS Pathogens, 2012)
Values after ≈ are worked out from the molar mass of the structure shown. Marks after values point to notes of the source that are not given here. Where a SMILES comes first, the peptide text is derived from it. Bridges are numbered along the chain shown (N, C = ends). [ ]: non-standard residue; d: D form. The star is where a group is joined. Heptanoyl(6-Me) = CC(C)CCCCC(=O)*; X1 = CC[C@H](C)CCCCC(=O)*; Dab = NCC[C@H](N)C(=O)O

How the values were obtained:
GBS WT strain = assay: Rhodamine-labeled peptide fluorescence self-quenching on addition of bacteria (aggregation), WT; format: cell-based, Streptococcus agalactiae; conditions: rhodamine-labeled peptide 1 µM, self-quenching (aggregation) relative to basal signal of the peptide after addition of bacteria, room temperature; means of triplicate measurements from two independent experiments
Source text: (§1) We further investigated whether the increased cell wall density resulting from D-alanylation of LTAs can reduce CAMPs penetration through the cell wall barrier by following the interaction of fluorescently labeled CAMPs with intact bacteria. […] Here, we investigated if the peptides display different aggregation states when bound to the WT or the dltA mutant strains. This was done by monitoring changes in the signal intensity of rhodamine-labeled peptides following their interaction with the bacterial surface under under high (160 mM NaCl) and low (16 mM NaCl) ionic strength conditions. Addition of bacteria to the rhodamine-labeled peptides induced self-quenching of fluorescence for all tested peptides. However, no significant difference in aggregation was found in the WT compared to the dltA strain (Figure 7A and Table 3).
Real time tracking of the changes in the fluorescent signal of rhodamine or NBD labeled peptides was performed using an SLM-Aminco Bowman series 2-luminescence spectrophotometer (SLM-Aminco, Rochester, NY, USA) at room temperature. Typical spectral bandwidths were 5 nm for excitation and 5 nm for emission. […] Following signal stabilization, bacterial suspension (10 µl, OD600 nm adjusted to 4) or liposomes suspension (100 µM lipid final concentration) composed of cardiolipid/PG (1∶1 M/M) was added to the cuvette and the change in signal was monitored over time.

GBS dltA mutant = assay: Rhodamine-labeled peptide fluorescence self-quenching on addition of bacteria (aggregation), dltA; format: cell-based, Streptococcus agalactiae; conditions: rhodamine-labeled peptide 1 µM
Source text: as §1
Real time tracking of the changes in the fluorescent signal of rhodamine or NBD labeled peptides was performed using an SLM-Aminco Bowman series 2-luminescence spectrophotometer (SLM-Aminco, Rochester, NY, USA) at room temperature. Typical spectral bandwidths were 5 nm for excitation and 5 nm for emission. […] The peptides were placed in a 5×5-mm quartz cuvette with constant magnetic stirring. Following signal stabilization, bacterial suspension (10 µl, OD600 nm adjusted to 4) or liposomes suspension (100 µM lipid final concentration) composed of cardiolipid/PG (1∶1 M/M) was added to the cuvette and the change in signal was monitored over time.

[1] = RP-HPLC hydrophobicity (% AcN at elution); format: physicochemical; conditions: chromatographic, C4 reverse analytical column; eluted in 40 min, linear gradient of acetonitrile 30 to 70% v/v in water containing TFA (0.05% v/v)
Procedure: The procedure conducted as described previously. Briefly, peptides were synthesized using the Fmoc solid phase method on Rink amide resin ([…]). For fluorescent labeling of the N-terminus of the peptides, resin-bound peptides were treated with NBD or rhodamine dissolved in dimethyl formamide (DMF), washed thoroughly with DMF and then with methylene chloride, dried and then cleaved. […] The peptides were subjected to amino acid and mass spectrometry analysis to confirm their composition.

GBS NEM316 WT strain = format: cell-based, Streptococcus agalactiae; conditions: Todd-Hewitt broth with 100 mM HEPES, 2×10^6 CFU, 96-well polypropylene microplate, overnight 37°C, OD600 nm; average of triplicate measurements
Procedure: (§2) The MICs of each antimicrobial peptide were tested in Todd-Hewitt broth (THB) buffered with 100 mM HEPES in 96-well polypropylene microplates (Costar, Cambridge, MA) by a dilution method. Bacteria (2×10^6 CFU) were added in triplicates to wells containing increasing concentrations of the antimicrobial peptides. Plates were incubated at 37°C with shaking overnight and then read (OD600 nm) using microplate reader (Labsystems Multiskanat) for bacterial growth. The MICs90 was considered to be the peptide concentration that inhibited 90% growth.

GBS ΔdltA mutant = assay: MIC90 by dilution method, GBS ΔdltA; format: cell-based, Streptococcus agalactiae; conditions: for MIC90, ΔdltA: Todd-Hewitt broth with 100 mM HEPES, 2×10^6 CFU, 96-well polypropylene microplate, overnight 37°C, OD600 nm, average of triplicate measurements; for more active against the dltA mutant compared to the WT (fold dilution): from MICs of Table 2, statement for all natural peptides; for fold more active on the dltA mutant compared to the WT: from MICs, WT versus dltA mutant
Procedure: as §2

GBS ΔmprF mutant = assay: MIC90 by dilution method, GBS ΔmprF; format: cell-based, Streptococcus agalactiae; conditions: Todd-Hewitt broth with 100 mM HEPES, 2×10^6 CFU, 96-well polypropylene microplate, overnight 37°C, OD600 nm; average of triplicate measurements
Procedure: as §2

GBS Δlgt Δlsp mutant = assay: MIC90 by dilution method, GBS Δlgt Δlsp; format: cell-based, Streptococcus agalactiae; conditions: Todd-Hewitt broth with 100 mM HEPES, 2×10^6 CFU, 96-well polypropylene microplate, overnight 37°C, OD600 nm; average of triplicate measurements
Procedure: as §2

GBS ΔcpsD mutant = assay: MIC90 by dilution method, GBS ΔcpsD; format: cell-based, Streptococcus agalactiae; conditions: Todd-Hewitt broth with 100 mM HEPES, 2×10^6 CFU, 96-well polypropylene microplate, overnight 37°C, OD600 nm; average of triplicate measurements
Procedure: as §2

GBS ΔsrtA mutant = assay: MIC90 by dilution method, GBS ΔsrtA; format: cell-based, Streptococcus agalactiae; conditions: Todd-Hewitt broth with 100 mM HEPES, 2×10^6 CFU, 96-well polypropylene microplate, overnight 37°C, OD600 nm; average of triplicate measurements
Procedure: as §2

[2] = self-quenching (aggregation) relative to basal signal of the peptide after addition of bacteria, room temperature, means of triplicate measurements from two independent experiments

| Molecule | Signal change [%], NaCl (16 mM), WT (GBS WT strain) | Signal change [%], NaCl (160 mM), WT (GBS WT strain) | Signal change [%], NaCl (16 mM), dltA (GBS dltA mutant; [2]) | Signal change [%], NaCl (160 mM), dltA (GBS dltA mutant; [2]) | Difference in signal change [%], NaCl (160 mM), Δ(dltA-WT) (GBS dltA mutant; difference in the signal change between dltA strain to the WT strain) | Hydrophobicity (% AcN) [1] | MIC90, WT (GBS NEM316 WT strain) | MIC90, ΔdltA (GBS ΔdltA mutant) | MIC90, ΔmprF (GBS ΔmprF mutant) | MIC90, Δlgt Δlsp (GBS Δlgt Δlsp mutant) | MIC90, ΔcpsD (GBS ΔcpsD mutant) | MIC90, ΔsrtA (GBS ΔsrtA mutant) | more active against the dltA mutant compared to the WT (fold dilution) (GBS ΔdltA mutant) | fold more active on the dltA mutant compared to the WT (GBS ΔdltA mutant) |
| --- | --- | --- | --- | --- | --- | --- | --- | --- | --- | --- | --- | --- | --- | --- |
| Rho-LL37: rhodamine-labeled LL37 (N-terminus) | −60.8% | −26.6% | −58.6% | −32.7 ^c % | 6.1% |  |  |  |  |  |  |  |  |  |
| CH3(CH2)6CO-KKLLKLLLKLLK-NH2 [C8-K5L7, lipopeptide: K5L7 coupled to a short fatty acid] |  |  |  |  |  | 61.4 % AcN | 3 µM | 3 µM |  |  |  |  |  |  |
| CC(C)C[C@H](NC(=O)[C@H](CCCCN)NC(=O)[C@H](CCCCN)NC(=O)[C@H](CCCCN)NC(=O)[C@H](CC(C)C)NC(=O)[C@H](CCCCN)NC(=O)[C@H](CCCCN)NC(=O)[C@H](CC(C)C)NC(=O)[C@H](CC(C)C)NC(=O)[C@H](CCCCN)NC(=O)[C@H](CCCCN)NC(=O)[C@H](CC(C)C)NC(=O)[C@H](CCCCN)NC(=O)[C@H](CCCCN)NC(=O)[C@@H](N)CC(C)C)C(N)=O [K9L6] (H-LKKLKKLLKKLKKKL-NH2) |  |  |  |  |  |  | 25 µM (≈ 46.2 µg/mL) | 25 µM (≈ 46.2 µg/mL) |  |  |  |  |  |  |
| CC(C)C[C@H](NC(=O)[C@H](CC(C)C)NC(=O)[C@H](CCCCN)NC(=O)[C@H](CC(C)C)NC(=O)[C@H](CC(C)C)NC(=O)[C@H](CC(C)C)NC(=O)[C@H](CCCCN)NC(=O)[C@H](CC(C)C)NC(=O)[C@H](CC(C)C)NC(=O)[C@H](CCCCN)NC(=O)[C@@H](N)CCCCN)C(=O)N[C@@H](CCCCN)C(N)=O [K5L7] (H-KKLLKLLLKLLK-NH2) |  |  |  |  |  |  | 25 µM (≈ 36.3 µg/mL) | 25 µM (≈ 36.3 µg/mL) |  |  |  |  |  |  |
| CC[C@H](C)[C@H](NC(=O)[C@H](CCCCN)NC(=O)[C@H](CCC(=O)O)NC(=O)[C@H](CCCCN)NC(=O)[C@H](CO)NC(=O)[C@H](CCCCN)NC(=O)[C@H](CCCNC(=N)N)NC(=O)[C@H](Cc1ccccc1)NC(=O)[C@H](Cc1ccccc1)NC(=O)[C@H](CC(=O)O)NC(=O)CNC(=O)[C@H](CC(C)C)NC(=O)[C@@H](N)CC(C)C)C(=O)NCC(=O)N[C@@H](CCCCN)C(=O)N[C@@H](CCC(=O)O)C(=O)N[C@@H](Cc1ccccc1)C(=O)N[C@@H](CCCCN)C(=O)N[C@@H](CCCNC(=N)N)C(=O)N[C@H](C(=O)N[C@H](C(=O)N[C@@H](CCC(N)=O)C(=O)N[C@@H](CCCNC(=N)N)C(=O)N[C@H](C(=O)N[C@@H](CCCCN)C(=O)N[C@@H](CC(=O)O)C(=O)N[C@@H](Cc1ccccc1)C(=O)N[C@@H](CC(C)C)C(=O)N[C@@H](CCCNC(=N)N)C(=O)N[C@@H](CC(N)=O)C(=O)N[C@@H](CC(C)C)C(=O)N[C@H](C(=O)N1CCC[C@H]1C(=O)N[C@@H](CCCNC(=N)N)C(=O)N[C@H](C(=O)N[C@@H](CCC(=O)O)C(=O)N[C@@H](CO)C(N)=O)[C@@H](C)O)C(C)C)[C@@H](C)CC)C(C)C)[C@@H](C)CC [LL-37] |  |  |  |  |  |  | >14.2 µM | 3.6 µM (≈ 16.2 µg/mL) | >14.2 µM | >14.2 µM | >14.2 µM | >14.2 µM |  |  |
| CC(C)C[C@H](NC(=O)[C@H](CC(C)C)NC(=O)[C@H](CCCCN)NC(=O)[C@H](CC(C)C)NC(=O)[C@H](CC(C)C)NC(=O)[C@H](CCCCN)NC(=O)[C@H](CCCCN)NC(=O)[C@H](CC(C)C)NC(=O)[C@H](CC(C)C)NC(=O)[C@H](CCCCN)NC(=O)[C@H](CCCCN)NC(=O)[C@H](CC(C)C)NC(=O)[C@H](CC(C)C)NC(=O)[C@H](CCCCN)NC(=O)[C@@H](N)CC(C)C)C(N)=O [K6L9] (H-LKLLKKLLKKLLKLL-NH2; N-terminus assumed) |  |  |  |  |  | 67.2 % AcN | 35.5 µM (≈ 64.1 µg/mL) | 17.7 µM (≈ 31.9 µg/mL) | 17.7 µM (≈ 31.9 µg/mL) | 17.7 µM (≈ 31.9 µg/mL) | 35.5 µM (≈ 64.1 µg/mL) | 35.5 µM (≈ 64.1 µg/mL) |  |  |
| CC[C@H](C)[C@H](NC(=O)CN)C(=O)NCC(=O)N[C@@H](CCCCN)C(=O)N[C@@H](Cc1ccccc1)C(=O)N[C@@H](CC(C)C)C(=O)N[C@@H](Cc1c[nH]cn1)C(=O)N[C@@H](CO)C(=O)N[C@@H](C)C(=O)N[C@@H](CCCCN)C(=O)N[C@@H](CCCCN)C(=O)N[C@@H](Cc1ccccc1)C(=O)NCC(=O)N[C@@H](CCCCN)C(=O)N[C@@H](C)C(=O)N[C@@H](Cc1ccccc1)C(=O)N[C@H](C(=O)NCC(=O)N[C@@H](CCC(=O)O)C(=O)N[C@H](C(=O)N[C@@H](CCSC)C(=O)N[C@@H](CC(N)=O)C(=O)N[C@@H](CO)C(N)=O)[C@@H](C)CC)C(C)C [Magainin 2] (H-GIGKFLHSAKKFGKAFVGEIMNS-NH2) |  |  |  |  |  |  | >25.5 µM | 6.4 µM (≈ 15.8 µg/mL) | >25.5 µM | >25.5 µM | >25.5 µM | >25.5 µM |  |  |
| CC[C@H](C)CCCCC(=O)N[C@@H](CCN)C(=O)N[C@H](C(=O)N[C@@H](CCN)C(=O)N[C@H]1CCNC(=O)[C@H]([C@@H](C)O)NC(=O)[C@H](CCN)NC(=O)[C@H](CCN)NC(=O)[C@H](CC(C)C)NC(=O)[C@@H](Cc2ccccc2)NC(=O)[C@H](CCN)NC1=O)[C@@H](C)O [Polymyxin B] (X1-[Dab]T[Dab][Dab][Dab][dF]L[Dab][Dab]T; lactam 4-C (inferred); N-terminus assumed) |  |  |  |  |  | 53.2 % AcN | 92.4 µM (≈ 111 µg/mL) | 5.8 µM (≈ 6.98 µg/mL) | 92.4 µM (≈ 111 µg/mL) | 92.4 µM (≈ 111 µg/mL) | 92.4 µM (≈ 111 µg/mL) | 92.4 µM (≈ 111 µg/mL) | > 2 fold dilution | 8 fold |
| CC(C)CCCCC(=O)N[C@@H](CCN)C(=O)N[C@H](C(=O)N[C@@H](CCN)C(=O)N[C@H]1CCNC(=O)[C@H]([C@@H](C)O)NC(=O)[C@H](CCN)NC(=O)[C@H](CCN)NC(=O)[C@H](CC(C)C)NC(=O)[C@@H](CC(C)C)NC(=O)[C@H](CCN)NC1=O)[C@@H](C)O ({Heptanoyl(6-Me)}-[Dab]T[Dab][Dab][Dab][dL]L[Dab][Dab]T; lactam 4-C; N-terminus assumed) |  |  |  |  |  |  | >221.6 µM | 13.9 µM (≈ 16.1 µg/mL) | >221.6 µM | >221.6 µM | >221.6 µM | >221.6 µM | > 2 fold dilution | 8 fold |
